Laboratory results published in patent US20240285634A1, “COMPOUND AND METHOD FOR TREATING CHEMOTHERAPY-ASSOCIATED GASTROINTESTINAL SIDE EFFECTS” (ONQUALITY PHARMACEUTICALS CHINA LTD., priority 2021, published 2024).

Tested on: Chemotherapeutic agent-caused constipation models of Balb/c mice
Assay: Relieving effect on constipation caused by a chemotherapeutic agent (Examples 202-364)
Assay type: in vivo
Text: Construction of mouse animal models: Chemotherapeutic agent-caused constipation models of Balb/c mice were constructed according to the administration mode and frequency of the chemotherapeutic agent as shown in Table 4. […] Thus, chemotherapeutic agent-caused constipation models of mice are very good models to mimic constipation caused by the chemotherapeutic agent.
Balb/c mice were fed for 1 week, and then divided into groups. The experiment was divided into a control group, a chemotherapeutic agent group, and a group of the compound as shown in Formula I, each of which comprised 10 mice, to perform the administration experiment, for which the administration dosage, mode, time and frequency were shown in Table 4. The control group: being injected or intragastrically administered with the same solvent as that used in the group of the compound as shown in Formula I (the administration mode and time were shown in Table 4), and then being injected or intragastrically administered with the same solvent as that used in the chemotherapeutic agent group (the administration mode was shown in Table 4); the chemotherapeutic agent group: being injected or intragastrically administered with the same solvent as that used in the group of the compound as shown in Formula I (the administration mode and time was shown in Table 4), and then being injected or intragastrically administered with the chemotherapeutic agent (the type, administration mode and dosage were shown in Table 4); the group of the compound as shown in Formula I: being injected or intragastrically administered with the compound as shown in Formula I (the administration mode and time was shown in Table 4), and then being administered with the chemotherapeutic agent (the administration mode and dosage were shown in Table 4).
The feces reduction rate was calculated with reference to the method of Ji Eun Kim (Lab Anim Res. 2016 December; 32(4): 231-240.). Feces reduction rate (%)=(the control group−the chemotherapeutic agent group or the group of the compound as shown in Formula I)/the control group*100%
It is regarded as effective remission when the feces reduction rate of mice in the group of the compound as shown in Formula I is reduced compared with that in the chemotherapeutic agent group.
The feces amount of mice within 3 hours was observed and recorded every day. At the end of the experiment, the number of mice in the group of the compound as shown in Formula I whose feces reduction rate was lower than that of mice in the chemotherapeutic agent group was recorded. Table 4 lists various animal experiment combinations of chemotherapeutic agents and the compound as shown in Formula I, as well as the corresponding experimental results.

SMILES: CN1CCN(c2ccc(Nc3ncc4cc5n(c4n3)C3(CCCCC3)CNC5=O)nc2)CC1 [Compound I, Trilaciclib]
- Relative remission rate (%) (Example 288, Irinotecan (CPT-11) intraperitoneal injection 260 mg/kg single, compound intravenous injection 150 mg/kg single, 2 h before chemotherapeutic agent, cycle 8 days): 50%
- Relative remission rate (%) (Example 289, Irinotecan (CPT-11) intraperitoneal injection 260 mg/kg single, compound intravenous injection 150 mg/kg single, 3 h before chemotherapeutic agent, cycle 8 days): 50%
- Relative remission rate (%) (Example 290, Irinotecan (CPT-11) intraperitoneal injection 260 mg/kg single, compound intravenous injection 150 mg/kg single, 4 h before chemotherapeutic agent, cycle 8 days): 40%
- Relative remission rate (%) (Example 291, Irinotecan (CPT-11) intraperitoneal injection 260 mg/kg single, compound intravenous injection 150 mg/kg single, 5 h before chemotherapeutic agent, cycle 8 days): 30%
- Relative remission rate (%) (Example 292, Irinotecan (CPT-11) intraperitoneal injection 260 mg/kg single, compound intravenous injection 150 mg/kg single, 6 h before chemotherapeutic agent, cycle 8 days): 40%
- Relative remission rate (%) (Example 293, Irinotecan (CPT-11) intraperitoneal injection 260 mg/kg single, compound intravenous injection 150 mg/kg single, 7 h before chemotherapeutic agent, cycle 8 days): 50%
- Relative remission rate (%) (Example 294, Irinotecan (CPT-11) intraperitoneal injection 260 mg/kg single, compound intravenous injection 150 mg/kg single, 8 h before chemotherapeutic agent, cycle 8 days): 60%
- Relative remission rate (%) (Example 295, Irinotecan (CPT-11) intraperitoneal injection 260 mg/kg single, compound intravenous injection 150 mg/kg single, 9 h before chemotherapeutic agent, cycle 8 days): 70%
- Relative remission rate (%) (Example 296, Irinotecan (CPT-11) intraperitoneal injection 260 mg/kg single, compound intravenous injection 150 mg/kg single, 10 h before chemotherapeutic agent, cycle 8 days): 50%
- Relative remission rate (%) (Example 297, Irinotecan (CPT-11) intraperitoneal injection 260 mg/kg single, compound intravenous injection 150 mg/kg single, 11 h before chemotherapeutic agent, cycle 8 days): 50%
- Relative remission rate (%) (Example 298, Irinotecan (CPT-11) intraperitoneal injection 260 mg/kg single, compound intravenous injection 150 mg/kg single, 12 h before chemotherapeutic agent, cycle 8 days): 40%
- Relative remission rate (%) (Example 299, Irinotecan (CPT-11) intraperitoneal injection 260 mg/kg single, compound intravenous injection 150 mg/kg single, 14 h before chemotherapeutic agent, cycle 8 days): 40%
- Relative remission rate (%) (Example 300, Irinotecan (CPT-11) intraperitoneal injection 260 mg/kg single, compound intravenous injection 150 mg/kg single, 16 h before chemotherapeutic agent, cycle 8 days): 40%
- Relative remission rate (%) (Example 301, Irinotecan (CPT-11) intraperitoneal injection 260 mg/kg single, compound intravenous injection 150 mg/kg single, 18 h before chemotherapeutic agent, cycle 8 days): 50%
- Relative remission rate (%) (Example 302, Irinotecan (CPT-11) intraperitoneal injection 260 mg/kg single, compound intravenous injection 150 mg/kg single, 20 h before chemotherapeutic agent, cycle 8 days): 50%
- Relative remission rate (%) (Example 303, Irinotecan (CPT-11) intraperitoneal injection 260 mg/kg single, compound intravenous injection 150 mg/kg single, 22 h before chemotherapeutic agent, cycle 8 days): 40%
- Relative remission rate (%) (Example 304, Irinotecan (CPT-11) intraperitoneal injection 260 mg/kg single, compound intravenous injection 150 mg/kg single, 24 h before chemotherapeutic agent, cycle 8 days): 40%
- Relative remission rate (%) (Example 305, Irinotecan (CPT-11) intraperitoneal injection 260 mg/kg single, compound intravenous injection 150 mg/kg single, 48 h before chemotherapeutic agent, cycle 8 days): 0%
- Relative remission rate (%) (Example 306, Irinotecan (CPT-11) oral administration 300 mg/kg single, compound intraperitoneal injection 100 mg/kg single, 24 h before chemotherapeutic agent, cycle 10 days): 60%
- Relative remission rate (%) (Example 307, Irinotecan (CPT-11) intramuscular injection 260 mg/kg single, compound intramuscular injection 100 mg/kg single, 1 h before chemotherapeutic agent, cycle 7 days): 60%
- Relative remission rate (%) (Example 308, Irinotecan (CPT-11) intravenous injection 260 mg/kg single, compound oral administration 100 mg/kg single, 12 h before chemotherapeutic agent, cycle 7 days): 50%
- Relative remission rate (%) (Example 309, Fluorouracil 125 (F) and irinotecan 240 (I) mg/kg intravenous injection single, compound intravenous injection 100 mg/kg single, 0.5 h before chemotherapeutic agent, cycle 10 days): 40%
- Relative remission rate (%) (Example 310, Fluorouracil 125 (F) and irinotecan 240 (I) mg/kg intravenous injection single, compound intravenous injection 100 mg/kg single, 4 h before chemotherapeutic agent, cycle 10 days): 60%
- Relative remission rate (%) (Example 311, Fluorouracil 125 (F) and irinotecan 240 (I) mg/kg intravenous injection single, compound intravenous injection 100 mg/kg single, 8 h before chemotherapeutic agent, cycle 10 days): 60%
- Relative remission rate (%) (Example 312, Fluorouracil 125 (F) and irinotecan 240 (I) mg/kg intravenous injection single, compound intravenous injection 100 mg/kg single, 12 h before chemotherapeutic agent, cycle 10 days): 70%
- Relative remission rate (%) (Example 313, Fluorouracil 125 (F) and irinotecan 240 (I) mg/kg intravenous injection single, compound intravenous injection 100 mg/kg single, 24 h before chemotherapeutic agent, cycle 10 days): 50%
- Relative remission rate (%) (Example 314, Fluorouracil 125 (F) and irinotecan 240 (I) mg/kg intravenous injection single, compound intravenous injection 100 mg/kg single, 48 h before chemotherapeutic agent, cycle 10 days): 0%
- Relative remission rate (%) (Example 318, Fluorouracil 125 (F) and irinotecan 240 (I) mg/kg intraperitoneal injection single, compound intraperitoneal injection 100 mg/kg single, 1 h before chemotherapeutic agent, cycle 7 days): 40%
- Relative remission rate (%) (Example 319, Fluorouracil 125 (F) and irinotecan 240 (I) mg/kg intraperitoneal injection single, compound intraperitoneal injection 100 mg/kg single, 12 h before chemotherapeutic agent, cycle 7 days): 50%
- Relative remission rate (%) (Example 322, Fluorouracil 100 (F) and oxaliplatin 5 (O) and irinotecan 100 (I) mg/kg intraperitoneal injection single, compound intraperitoneal injection 300 mg/kg single, 0.5 h before chemotherapeutic agent, cycle 8 days): 30%
- Relative remission rate (%) (Example 323, Fluorouracil 100 (F) and oxaliplatin 5 (O) and irinotecan 100 (I) mg/kg intraperitoneal injection single, compound intraperitoneal injection 300 mg/kg single, 4 h before chemotherapeutic agent, cycle 8 days): 30%
- Relative remission rate (%) (Example 324, Fluorouracil 100 (F) and oxaliplatin 5 (O) and irinotecan 100 (I) mg/kg intraperitoneal injection single, compound intraperitoneal injection 300 mg/kg single, 8 h before chemotherapeutic agent, cycle 8 days): 60%
- Relative remission rate (%) (Example 325, Fluorouracil 100 (F) and oxaliplatin 5 (O) and irinotecan 100 (I) mg/kg intraperitoneal injection single, compound intraperitoneal injection 300 mg/kg single, 12 h before chemotherapeutic agent, cycle 8 days): 50%
- Relative remission rate (%) (Example 326, Fluorouracil 100 (F) and oxaliplatin 5 (O) and irinotecan 100 (I) mg/kg intraperitoneal injection single, compound intraperitoneal injection 300 mg/kg single, 24 h before chemotherapeutic agent, cycle 8 days): 40%
- Relative remission rate (%) (Example 327, Fluorouracil 100 (F) and oxaliplatin 5 (O) and irinotecan 100 (I) mg/kg intraperitoneal injection single, compound intraperitoneal injection 300 mg/kg single, 48 h before chemotherapeutic agent, cycle 8 days): 0%
- Relative remission rate (%) (Example 328, Fluorouracil 100 (F), oxaliplatin 5 (O), irinotecan 100 (I) and tetrahydrofolic acid 100 (L) mg/kg intravenous injection single, compound intravenous injection 100 mg/kg single, 0.5 h before chemotherapeutic agent, cycle 8 days): 20%
- Relative remission rate (%) (Example 329, Fluorouracil 100 (F), oxaliplatin 5 (O), irinotecan 100 (I) and tetrahydrofolic acid 100 (L) mg/kg intravenous injection single, compound intravenous injection 100 mg/kg single, 1 h before chemotherapeutic agent, cycle 8 days): 30%
- Relative remission rate (%) (Example 330, Fluorouracil 100 (F), oxaliplatin 5 (O), irinotecan 100 (I) and tetrahydrofolic acid 100 (L) mg/kg intravenous injection single, compound intravenous injection 100 mg/kg single, 2 h before chemotherapeutic agent, cycle 8 days): 30%
- Relative remission rate (%) (Example 331, Fluorouracil 100 (F), oxaliplatin 5 (O), irinotecan 100 (I) and tetrahydrofolic acid 100 (L) mg/kg intravenous injection single, compound intravenous injection 100 mg/kg single, 3 h before chemotherapeutic agent, cycle 8 days): 50%
- Relative remission rate (%) (Example 332, Fluorouracil 100 (F), oxaliplatin 5 (O), irinotecan 100 (I) and tetrahydrofolic acid 100 (L) mg/kg intravenous injection single, compound intravenous injection 100 mg/kg single, 4 h before chemotherapeutic agent, cycle 8 days): 50%
- Relative remission rate (%) (Example 333, Fluorouracil 100 (F), oxaliplatin 5 (O), irinotecan 100 (I) and tetrahydrofolic acid 100 (L) mg/kg intravenous injection single, compound intravenous injection 100 mg/kg single, 6 h before chemotherapeutic agent, cycle 8 days): 40%
- Relative remission rate (%) (Example 334, Fluorouracil 100 (F), oxaliplatin 5 (O), irinotecan 100 (I) and tetrahydrofolic acid 100 (L) mg/kg intravenous injection single, compound intravenous injection 100 mg/kg single, 8 h before chemotherapeutic agent, cycle 8 days): 60%
- Relative remission rate (%) (Example 335, Fluorouracil 100 (F), oxaliplatin 5 (O), irinotecan 100 (I) and tetrahydrofolic acid 100 (L) mg/kg intravenous injection single, compound intravenous injection 100 mg/kg single, 10 h before chemotherapeutic agent, cycle 8 days): 60%
- Relative remission rate (%) (Example 336, Fluorouracil 100 (F), oxaliplatin 5 (O), irinotecan 100 (I) and tetrahydrofolic acid 100 (L) mg/kg intravenous injection single, compound intravenous injection 100 mg/kg single, 12 h before chemotherapeutic agent, cycle 8 days): 60%
- Relative remission rate (%) (Example 337, Fluorouracil 100 (F), oxaliplatin 5 (O), irinotecan 100 (I) and tetrahydrofolic acid 100 (L) mg/kg intravenous injection single, compound intravenous injection 100 mg/kg single, 14 h before chemotherapeutic agent, cycle 8 days): 40%
- Relative remission rate (%) (Example 338, Fluorouracil 100 (F), oxaliplatin 5 (O), irinotecan 100 (I) and tetrahydrofolic acid 100 (L) mg/kg intravenous injection single, compound intravenous injection 100 mg/kg single, 16 h before chemotherapeutic agent, cycle 8 days): 40%
- Relative remission rate (%) (Example 339, Fluorouracil 100 (F), oxaliplatin 5 (O), irinotecan 100 (I) and tetrahydrofolic acid 100 (L) mg/kg intravenous injection single, compound intravenous injection 100 mg/kg single, 18 h before chemotherapeutic agent, cycle 8 days): 40%
- Relative remission rate (%) (Example 340, Fluorouracil 100 (F), oxaliplatin 5 (O), irinotecan 100 (I) and tetrahydrofolic acid 100 (L) mg/kg intravenous injection single, compound intravenous injection 100 mg/kg single, 20 h before chemotherapeutic agent, cycle 8 days): 30%
- Relative remission rate (%) (Example 341, Fluorouracil 100 (F), oxaliplatin 5 (O), irinotecan 100 (I) and tetrahydrofolic acid 100 (L) mg/kg intravenous injection single, compound intravenous injection 100 mg/kg single, 24 h before chemotherapeutic agent, cycle 8 days): 30%
- Relative remission rate (%) (Example 342, Fluorouracil 100 (F), oxaliplatin 5 (O), irinotecan 100 (I) and tetrahydrofolic acid 100 (L) mg/kg intravenous injection single, compound intravenous injection 100 mg/kg single, 48 h before chemotherapeutic agent, cycle 8 days): 0%
- Relative remission rate (%) (Example 345, Fluorouracil 100 (F), oxaliplatin 5 (O), irinotecan 100 (I) and tetrahydrofolic acid 100 (L) mg/kg intraperitoneal injection single, compound oral administration 100 mg/kg single, 6 h before chemotherapeutic agent, cycle 7 days): 60%
- Relative remission rate (%) (Example 346, Fluorouracil 100 (F), oxaliplatin 5 (O), irinotecan 100 (I) and tetrahydrofolic acid 100 (L) mg/kg intraperitoneal injection single, compound oral administration 100 mg/kg single, 24 h before chemotherapeutic agent, cycle 7 days): 40%
- Relative remission rate (%) (Example 355, Fluorouracil 100 (F), oxaliplatin 5 (O), irinotecan 200 (I) and tetrahydrofolic acid 100 (L) mg/kg oral administration single, compound subcutaneous injection 100 mg/kg single, 0.5 h before chemotherapeutic agent, cycle 7 days): 50%
- Relative remission rate (%) (Example 356, Fluorouracil 100 (F), oxaliplatin 5 (O), irinotecan 200 (I) and tetrahydrofolic acid 100 (L) mg/kg oral administration single, compound subcutaneous injection 100 mg/kg single, 4 h before chemotherapeutic agent, cycle 7 days): 50%
- Relative remission rate (%) (Example 360, Gemcitabine (GEM) intravenous injection 120 mg/kg single, compound oral administration 100 mg/kg single, 24 h before chemotherapeutic agent, cycle 8 days): 30%
- feces reduction rates compared with the chemotherapeutic agent group (administered before the chemotherapeutic agent, Table 4 and FIG. 4): reduced to different degrees
